Measurements: ChEMBL document CHEMBL1135064, “Studies on quinazolinones as dual inhibitors of Pgp and MRP1 in multidrug resistance” (Bioorg Med Chem Lett, 2002)

Tests used:
[1] = molecular target: Multidrug resistance-associated protein 1 (Homo sapiens, UniProt P33527); assay: Inhibition of multidrug resistance associated protein type 1 (MRP1) assayed by an accumulation assay in COR.L23/R cells; format: functional, cell-based
[2] = molecular target: ATP-dependent translocase ABCB1 (Mus musculus, UniProt P06795); assay: Inhibitory activity against P-glycoprotein (Pgp) using accumulation assay for Pgp expressing EMT6/AR1.0 cells.; format: functional
Chain of ATP-dependent translocase ABCB1 (P06795 whole entry): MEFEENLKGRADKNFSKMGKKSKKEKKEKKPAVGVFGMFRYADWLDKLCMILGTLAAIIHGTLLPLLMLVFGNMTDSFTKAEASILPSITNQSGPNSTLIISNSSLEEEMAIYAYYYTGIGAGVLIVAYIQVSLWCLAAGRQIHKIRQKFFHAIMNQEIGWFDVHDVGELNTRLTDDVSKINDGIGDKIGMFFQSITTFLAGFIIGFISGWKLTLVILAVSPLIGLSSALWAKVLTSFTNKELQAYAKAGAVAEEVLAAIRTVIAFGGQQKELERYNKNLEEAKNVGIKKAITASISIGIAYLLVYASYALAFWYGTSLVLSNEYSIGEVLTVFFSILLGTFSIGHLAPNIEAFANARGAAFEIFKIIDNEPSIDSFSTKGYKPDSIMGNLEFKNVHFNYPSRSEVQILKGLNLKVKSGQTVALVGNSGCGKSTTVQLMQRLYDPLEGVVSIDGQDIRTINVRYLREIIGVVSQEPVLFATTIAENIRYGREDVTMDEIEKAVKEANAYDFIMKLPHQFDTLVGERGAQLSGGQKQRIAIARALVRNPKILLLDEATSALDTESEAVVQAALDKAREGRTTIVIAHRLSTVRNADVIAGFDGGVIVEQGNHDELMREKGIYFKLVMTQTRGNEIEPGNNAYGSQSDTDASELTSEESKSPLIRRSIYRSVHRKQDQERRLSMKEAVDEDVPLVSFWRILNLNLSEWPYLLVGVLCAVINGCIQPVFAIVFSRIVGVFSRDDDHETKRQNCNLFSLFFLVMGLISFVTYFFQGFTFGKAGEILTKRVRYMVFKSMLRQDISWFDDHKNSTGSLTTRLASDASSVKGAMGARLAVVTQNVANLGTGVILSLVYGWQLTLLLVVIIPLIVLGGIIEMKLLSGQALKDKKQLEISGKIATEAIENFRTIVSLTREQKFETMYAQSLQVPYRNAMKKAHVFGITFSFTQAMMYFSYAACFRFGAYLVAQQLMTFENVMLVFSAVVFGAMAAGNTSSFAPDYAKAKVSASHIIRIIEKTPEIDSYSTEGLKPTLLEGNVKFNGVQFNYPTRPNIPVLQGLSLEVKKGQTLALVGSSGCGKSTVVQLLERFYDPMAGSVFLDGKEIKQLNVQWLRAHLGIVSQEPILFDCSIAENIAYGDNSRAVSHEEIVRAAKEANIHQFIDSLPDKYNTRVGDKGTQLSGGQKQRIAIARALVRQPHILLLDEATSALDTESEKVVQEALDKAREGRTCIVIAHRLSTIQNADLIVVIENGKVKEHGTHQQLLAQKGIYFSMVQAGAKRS

[3] = Compound was evaluated for its inhibitory activity against multidrug resistance associated protein type 1 (MRP) using potentiation assay; format: functional, Homo sapiens
EMT6 = assay: Compound was evaluated for its inhibitory activity against P-glycoprotein (Pgp) using potentiation assay; format: functional, cell-based; details: Mus musculus

Chain of Multidrug resistance-associated protein 1 (P33527 whole entry): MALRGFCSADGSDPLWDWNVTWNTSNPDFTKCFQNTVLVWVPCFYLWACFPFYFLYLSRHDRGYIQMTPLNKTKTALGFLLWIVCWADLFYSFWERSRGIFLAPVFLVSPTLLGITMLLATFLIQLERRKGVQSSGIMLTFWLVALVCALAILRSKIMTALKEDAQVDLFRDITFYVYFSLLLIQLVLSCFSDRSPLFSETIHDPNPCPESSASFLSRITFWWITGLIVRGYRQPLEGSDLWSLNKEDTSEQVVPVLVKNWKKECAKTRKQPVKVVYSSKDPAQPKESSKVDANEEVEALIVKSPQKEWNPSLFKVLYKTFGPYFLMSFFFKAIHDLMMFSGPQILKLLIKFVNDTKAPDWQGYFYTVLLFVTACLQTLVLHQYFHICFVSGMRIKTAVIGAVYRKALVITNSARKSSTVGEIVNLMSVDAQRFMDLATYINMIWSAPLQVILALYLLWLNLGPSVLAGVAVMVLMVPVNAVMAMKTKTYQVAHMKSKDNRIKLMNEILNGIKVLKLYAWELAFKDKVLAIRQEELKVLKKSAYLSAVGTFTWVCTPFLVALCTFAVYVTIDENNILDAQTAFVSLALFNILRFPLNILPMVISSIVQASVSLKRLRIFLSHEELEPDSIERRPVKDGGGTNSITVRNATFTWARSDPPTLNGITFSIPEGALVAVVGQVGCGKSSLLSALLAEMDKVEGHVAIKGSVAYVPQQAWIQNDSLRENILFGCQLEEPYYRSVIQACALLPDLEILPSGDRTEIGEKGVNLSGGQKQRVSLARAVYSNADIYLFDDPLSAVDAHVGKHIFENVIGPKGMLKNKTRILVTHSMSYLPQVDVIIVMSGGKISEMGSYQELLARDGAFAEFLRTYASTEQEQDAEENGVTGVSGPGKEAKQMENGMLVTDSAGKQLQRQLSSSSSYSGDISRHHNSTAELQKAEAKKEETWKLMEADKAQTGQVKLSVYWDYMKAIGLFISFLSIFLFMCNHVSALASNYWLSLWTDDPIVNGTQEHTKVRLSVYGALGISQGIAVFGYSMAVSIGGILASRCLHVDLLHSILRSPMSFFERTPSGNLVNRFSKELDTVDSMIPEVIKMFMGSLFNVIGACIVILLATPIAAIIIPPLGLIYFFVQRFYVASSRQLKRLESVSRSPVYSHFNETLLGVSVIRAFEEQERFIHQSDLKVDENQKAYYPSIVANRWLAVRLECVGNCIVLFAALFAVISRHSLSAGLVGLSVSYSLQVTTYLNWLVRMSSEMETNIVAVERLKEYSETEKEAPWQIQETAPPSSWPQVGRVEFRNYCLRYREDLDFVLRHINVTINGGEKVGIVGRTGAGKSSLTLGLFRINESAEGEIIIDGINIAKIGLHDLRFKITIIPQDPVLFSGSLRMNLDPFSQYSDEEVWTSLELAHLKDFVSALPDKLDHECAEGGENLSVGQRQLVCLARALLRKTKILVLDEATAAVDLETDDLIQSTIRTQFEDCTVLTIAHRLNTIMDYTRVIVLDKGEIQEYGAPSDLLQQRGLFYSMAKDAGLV

Structure (SMILES) | IC50 [1] [nM] | IC50 [2] [nM] | EC50 [3] [nM] | EC50 (EMT6) [nM]
CCCCCCn1c(-c2ccc(N(C)C)cc2)nc2ccccc2c1=O | > 100000 | 40000 | – | –
CCCc1cccc(-c2nc3ccccc3c(=O)n2CCN2CCc3cc(OC)c(OC)cc3C2)c1 | 1000 | 800 | – | –
COc1cc2c(cc1OC)CN(CCn1c(-c3ccc(N(C)C)cc3)nc3c(OC)cccc3c1=O)CC2 | 15100 | 50 | – | –
CN(C)c1ccc(-c2nc3ccccc3c(=O)n2Cc2ccccc2)cc1 | > 100000 | 41000 | – | –
COc1cc2c(cc1OC)CN(CCn1c(-c3ccc(-c4ccccc4)cc3)nc3ccccc3c1=O)CC2 | 1000 | 1030 | – | –
CN(C)c1ccc(-c2nc3ccccc3c(=O)n2CCc2ccncc2)cc1 | 3330 | 10000 | – | –
CN(C)c1ccc(-c2nc3ccccc3c(=O)n2CCN2CCN(c3ncccn3)CC2)cc1 | 36000 | 390 | – | –
COc1ccc(CCN(C)CCn2c(-c3ccc(N(C)C)cc3)nc3ccccc3c2=O)cc1OC | 37000 | 1900 | – | –
COc1cc2c(cc1OC)CN(CCn1c(-c3ccc4c(c3)OCO4)nc3ccccc3c1=O)CC2 | 1500 | 3700 | – | –
COc1cc2c(cc1OC)CN(CCn1c(-c3ccc(N(C)C)cc3)nc3cc([N+](=O)[O-])ccc3c1=O)CC2 | 2020 | 1100 | – | –
COc1cc2c(cc1OC)CN(CCn1c(-c3ccccc3O)nc3ccccc3c1=O)CC2 | 95000 | – | – | –
CN(C)c1ccc(-c2nc3ccccc3c(=O)n2CCN2CCc3ccccc3C2)cc1 | 3200 | 5000 | – | –
CN(C)c1ccc(-c2nc3ccccc3c(=O)n2CC2CCCCC2)cc1 | 10000 | 14000 | – | –
COc1cc(C(=O)N2CCN(CCn3c(-c4ccc(N(C)C)cc4)nc4ccccc4c3=O)CC2)cc(OC)c1OC | 7200 | 4200 | – | –
COc1cc2c(cc1OC)CN(CCn1c(-c3ccccc3)nc3ccccc3c1=O)CC2 | 2800 | 8000 | – | –
CN(C)c1ccc(-c2nc3ccccc3c(=O)n2CCN2CCN(Cc3ccccc3)CC2)cc1 | 39000 | 2100 | – | –
COc1cc2c(cc1OC)CN(CCn1c(-c3ccc4ccccc4c3)nc3ccccc3c1=O)CC2 | 900 | 850 | – | –
COc1cc(C(=O)C(=O)N2CCCC[C@H]2C(=O)OC(CCCc2cccnc2)CCCc2cccnc2)cc(OC)c1OC [BIRICODAR] | 5180 | 5000 | – | –

Second part, the molecule after the results:

IC50 [1] [nM] | IC50 [2] [nM] | EC50 [3] [nM] | EC50 (EMT6) [nM] | Structure (SMILES)
2910 | 1060 | – | – | COc1cc2c(cc1OC)CN(CCn1c(-c3ccc(N(C)C)cc3)nc3c(Cl)cccc3c1=O)CC2
7600 | 2000 | – | – | COc1cc2c(cc1OC)CN(CCn1c(-c3ccc(N(C)C)cc3)nc3ccc(N)cc3c1=O)CC2
18600 | 7200 | – | – | COc1cc2c(cc1OC)CN(CCn1c(-c3ccc(N(C)C)cc3)nc3cc(N)ccc3c1=O)CC2
6350 | 630 | – | – | COc1cc2c(cc1OC)CN(CCn1c(-c3ccc(N(C)C)cc3)nc3c(C)cccc3c1=O)CC2
3840 | 160 | – | – | COc1cc2c(cc1OC)CN(CCn1c(-c3ccc(N(C)C)cc3)nc3cccc(Cl)c3c1=O)CC2
500 | 1000 | – | – | COc1cc2c(cc1OC)CN(CCn1c(-c3ccc(C(C)C)cc3)nc3ccccc3c1=O)CC2
> 10000 | 1300 | – | – | CCN(CC)c1ccc(-c2nc3ccccc3c(=O)n2CCN2CCc3cc(OC)c(OC)cc3C2)cc1
1560 | 1700 | – | – | COc1cc2c(cc1OC)CN(CCn1c(-c3ccc(N(C)C)cc3)nc3ccc(Cl)cc3c1=O)CC2
400 | 600 | – | – | COc1cc2c(cc1OC)CN(CCn1c(-c3ccc(N(C)C)cc3)nc3ccc([N+](=O)[O-])cc3c1=O)CC2
1050 | 1070 | 3010 | 3300 | COc1cc2c(cc1OC)CN(CCn1c(-c3ccc(N(C)C)cc3)nc3ccccc3c1=O)CC2
1330 | 1350 | – | – | COc1cc2c(cc1OC)CN(CCn1c(-c3ccc(N(C)C)cc3)nc3cc(Cl)ccc3c1=O)CC2
4500 | 1600 | – | – | COc1cc2c(cc1OC)CN(CCn1c(-c3cccc(N(C)C)c3)nc3ccccc3c1=O)CC2
